# Measured values taken from ChEMBL document CHEMBL1150020, “Optical isomers of RP 64406: New potent antiglutamate agents” (1993).
# System: Rattus norvegicus
# Assay: Ability to protect against glutamate-induced convulsion in rat upon i.p. administration
# Format: functional
# [1] = Rattus norvegicus, ip, read-out: ED50
Compound,ED50 [1] [mg/kg],ED50 [mg/kg]
CSCCn1c(=N)sc2cc(OC(F)(F)F)ccc21,1,–
"C[S+]([O-])CCn1c(=N)sc2cc(OC(F)(F)F)ccc21 (single isomer, unassigned; (-))",1.6,–
Nc1nc2ccc(OC(F)(F)F)cc2s1 [RILUZOLE],3.2,–
"C[S+]([O-])CCn1c(=N)sc2cc(OC(F)(F)F)ccc21 (single isomer, unassigned; (+))",–,1
C[S+]([O-])CCn1c(=N)sc2cc(OC(F)(F)F)ccc21 (stereo in doubt; 3),–,1.1
